Laboratory results as given in PMC7824081, “Inhibition of DOT1L by Half-Selenopsammaplin A Analogs Suppresses Tumor Growth and EMT-Mediated Metastasis in Triple-Negative Breast Cancer” (Pharmaceuticals, 2020).

How the values were obtained:
[1] = system: H3K79 methylation (DOT1L) in MDA-MB-231 cells; assay: Western blotting of H3K79 methylation in MDA-MB-231 cells; type: cell-based, human; details: indicated concentrations, 48 h
Method: Total cell lysates were prepared in 2× sample loading buffer [250 mM Tris-HCl (pH 6.8), 10% glycerol, 4% sodium dodecyl sulfate (SDS), 2% β-mercaptoethanol, 0.006% bromophenol blue, 5 mM sodium orthovanadate, and 50 mM sodium fluoride; Bio-Rad, Hercules, CA, USA]. The protein concentrations of samples were quantified using the bicinchoninic acid (BCA) method and a BCA Protein Assay Kit (Thermo Fisher Scientific, Waltham, MA, USA). Equal amounts of protein (5–20 μg) were separated by 6–13% SDS-polyacrylamide gel electrophoresis (PAGE) and transferred to polyvinylidene fluoride membranes (Millipore, Bedford, MA, USA). The membranes were blocked with 5% bovine serum albumin (Sigma-Aldrich) and then probed with anti-DOT1L, anti-H3K79me2, anti-β-Actin, anti-histone H3, anti-H3K4me2, anti-H3K27me2, anti-H3K36me2, anti-H3K79me1, anti-H3K79me3, and anti-Vimentin antibodies purchased from Cell Signaling Technology (Beverly, MA, USA) or with anti-E-cadherin and anti-N-cadherin antibodies purchased from (BD Biosciences, San Jose, CA, USA). The blots were detected using a WEST-Queen detection system (iNtRON Biotechnology, Seongnam, Korea).

[2] = system: MCF10A normal breast epithelial cells; assay: SRB cell proliferation assay, MCF10A; type: cell-based, human; details: Homo sapiens, MCF-10A, 72 h
Method: (§1) Human breast epithelial cell line (MCF10A) and human TNBC cell lines (MDA-MB-468, MDA-MB-231, Hs578T, and HCC38 cells) were provided by the American Type Culture Collection (Manassas, VA, USA). MCF10A cells were cultured in Dulbecco’s Modified Eagle’s Medium/Nutrient Mixture F-12 containing 5% donor horse serum, 100 ng/mL cholera toxin, 10 µg/mL human insulin, 20 ng/mL epidermal growth factor, 0.5 µg/mL hydrocortisone, and penicillin-streptomycin (sodium penicillin G: 100 units/mL; streptomycin: 100 μg/mL). The TNBC cells were cultured in medium [Dulbecco’s Modified Eagle’s Medium for MDA-MB-468, MDA-MB-231, and Hs578T cells; Roswell Park Memorial Institute 1640 medium for HCC38 cells] supplemented with penicillin-streptomycin and 10% fetal bovine serum at 37 °C in a humidified incubator with 5% carbon dioxide. MCF10A cells were cultured in DMEM/F12 containing 5% donor horse serum, 100 ng/mL cholera toxin, 10 µg/mL human insulin, 20 ng/mL epidermal growth factor, 0.5 µg/mL hydrocortisone and penicillin-streptomycin. All reagents used for cell culture, including culture medium, fetal bovine serum, trypsin-EDTA solution (1×), and penicillin-streptomycin solution (100×), were purchased from Gibco (Grand Island, NE, USA). Laemmli sample buffer (2×) and 2-mercaptoethanol were purchased from Bio-Rad Laboratories, Inc. (Hercules, CA, USA). EPZ-5676 was purchased from Cayman Chemical (Ann Arbor, MI, USA). Dimethyl sulfoxide (DMSO), bicinchoninic acid, copper (II) sulfate solution, bovine serum albumin (BSA), trichloroacetic acid, sulforhodamine B (SRB), and paclitaxel were purchased from Sigma–Aldrich (St. Louis, MO, USA).
(§2) Cell proliferation was evaluated using the SRB assay. Briefly, cells were seeded in 96-well plates and incubated for 30 min (for 0-day controls) or treated with test compounds for the times indicated. After incubation, the cells were fixed, dried, and stained with 0.4% (w/v) SRB in 1% (v/v) acetic acid solution. Unbound dye was removed by washing, and stained cells were dissolved in 10 mM Tris (pH 10.0). Cell proliferation was then determined by measuring the absorbance at 515 nm.

[3] = system: MDA-MB-231 cells; assay: Transwell cell invasion assay; type: cell-based, human; details: 24 h pretreatment, 24 h Transwell
Method: Twenty-four-well Transwell membrane inserts (diameter: 6.5 mm, pore size: 8 μm; Corning, Tewksbury, MA, USA) were each coated with 10 μL of type I collagen (0.5 mg/mL, BD Biosciences, San Diego, CA, USA) and 20 μL of a 1:20 mixture of Matrigel (BD Biosciences) in PBS. After treatment with the indicated compounds for 24 h, MDA-MB-231 human TNBC cells were harvested, resuspended in serum-free medium, and plated (2 × 10^5 cells/chamber) in the upper chambers of the Matrigel-coated Transwell inserts. Medium containing 30% FBS was used as a chemoattractant in the lower chambers. After a 24 h incubation, the cells that had migrated to the outer surfaces of the lower chambers were fixed and stained using the Diff-Quik Staining Kit (Sysmex, Kobe, Japan) and imaged using a Vectra 3.0 Automated Quantitative Pathology Imaging System (Perkin Elmer, Waltham, MA, USA). Representative images from three separate experiments are shown, and the numbers of invaded cells were counted in 5 randomly selected microscopic fields (200× magnification).

[4] = system: MDA-MB-231 TNBC cells; assay: SRB cell proliferation assay, MDA-MB-231; type: cell-based, human
Method: as §1, §2

[5] = molecular target: T1, DOT1L (Homo sapiens, UniProt Q8TEK3); assay: DOT1L enzyme activity assay (cell-free); type: biochemical; details: 500 ng/well DOT1L, 2 h incubation
T1 construct: purchased BPS Bioscience 52202
Method: DOT1L enzyme activity was measured using 5 μM S-adenosyl methionine (SAM) as the methyl group donor, synthesized DOT1L substrate as the substrate, and 25 ng/μL DOT1L enzymes from BPS Bioscience (Cat. No. 52202; San Diego, CA, USA) according to the manufacturer’s instructions.

T1 sequence (Q8TEK3 whole entry): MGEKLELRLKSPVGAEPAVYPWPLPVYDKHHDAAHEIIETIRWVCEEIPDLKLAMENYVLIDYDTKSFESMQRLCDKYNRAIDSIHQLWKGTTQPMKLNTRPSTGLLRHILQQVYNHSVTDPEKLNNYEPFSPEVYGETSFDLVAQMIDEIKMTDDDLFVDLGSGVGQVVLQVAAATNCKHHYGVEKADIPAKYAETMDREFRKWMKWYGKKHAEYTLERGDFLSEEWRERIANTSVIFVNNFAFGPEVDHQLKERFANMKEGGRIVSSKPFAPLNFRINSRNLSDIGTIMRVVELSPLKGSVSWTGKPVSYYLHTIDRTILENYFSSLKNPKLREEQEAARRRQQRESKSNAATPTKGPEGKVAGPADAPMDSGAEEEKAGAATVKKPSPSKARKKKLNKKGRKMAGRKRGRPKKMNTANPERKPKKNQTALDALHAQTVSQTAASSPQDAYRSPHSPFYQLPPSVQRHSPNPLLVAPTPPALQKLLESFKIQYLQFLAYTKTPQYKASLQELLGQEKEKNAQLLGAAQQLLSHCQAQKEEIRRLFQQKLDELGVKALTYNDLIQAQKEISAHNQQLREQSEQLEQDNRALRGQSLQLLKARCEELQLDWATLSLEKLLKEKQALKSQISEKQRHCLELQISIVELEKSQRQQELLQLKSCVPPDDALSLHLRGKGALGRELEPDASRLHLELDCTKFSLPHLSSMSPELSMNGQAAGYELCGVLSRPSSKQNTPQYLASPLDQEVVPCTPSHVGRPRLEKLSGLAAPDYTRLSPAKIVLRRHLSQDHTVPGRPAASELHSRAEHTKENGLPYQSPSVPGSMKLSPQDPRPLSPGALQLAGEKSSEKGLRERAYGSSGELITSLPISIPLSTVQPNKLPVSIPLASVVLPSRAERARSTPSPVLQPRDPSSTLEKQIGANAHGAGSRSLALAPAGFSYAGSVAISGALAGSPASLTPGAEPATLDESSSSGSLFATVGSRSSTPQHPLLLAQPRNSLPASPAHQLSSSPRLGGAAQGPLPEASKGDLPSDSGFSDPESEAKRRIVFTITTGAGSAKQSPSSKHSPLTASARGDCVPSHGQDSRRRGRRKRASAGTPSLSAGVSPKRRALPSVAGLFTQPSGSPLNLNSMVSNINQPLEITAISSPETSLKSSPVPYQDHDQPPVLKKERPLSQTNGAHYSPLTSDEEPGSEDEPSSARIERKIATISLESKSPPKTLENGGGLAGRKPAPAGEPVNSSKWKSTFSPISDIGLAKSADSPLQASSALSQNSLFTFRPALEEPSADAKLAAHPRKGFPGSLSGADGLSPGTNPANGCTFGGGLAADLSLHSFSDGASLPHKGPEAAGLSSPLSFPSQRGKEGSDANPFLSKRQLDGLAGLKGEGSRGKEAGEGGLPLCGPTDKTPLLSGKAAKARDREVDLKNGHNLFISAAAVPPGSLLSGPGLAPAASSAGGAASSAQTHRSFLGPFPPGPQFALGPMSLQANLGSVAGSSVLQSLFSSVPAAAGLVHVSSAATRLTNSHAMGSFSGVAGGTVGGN

CC(C)(C)c1ccc(C/C(=N\O)C(=O)NCC[Se]Sc2ccccc2)cc1 [9l, (E)-3-(4-(tert-Butyl)phenyl)-2-(hydroxyimino)-N-(2-((phenylthio)selanyl)ethyl)propanamide] was tested, and the H3K79 methylations [1] was “effectively suppressed H3K79 methylations in a concentration-dependent manner”, the IC50 [2] was 25900 nM and the cell invasion [3] was “significantly inhibited”. The IC50 ([4]; Homo sapiens, MDA-MB-231, 72 h, SRB assay) was 160 nM, the “Therapeutic Index” value ([4]; ratio of IC50 values between MCF10A and MDA-MB-231 cells) was 161.63 and the IC50 [5] was 363 nM.
